Here are results for 15 compounds from patent US20240409585A1, “MACROCYCLIC IMMUNOMODULATORS” (priority 2021, published 2024).

In the test the target is T1, PE-labeled human PD-L1-Ig binding to Jurkat cell line over-expressing human PD-1 (Jurkat-PD-1) (Homo sapiens, UniProt Q15116).
T1 construct: expressed in transfected cells; host or cells: Jurkat
As to the kind of experiment: Jurkat-PD-1 Cell Binding High-Content Screening Assay (CBA): Method 1. To be noted: Jurkat-hPD-1 cells, PE-labeled PD-L1-Ig 20 nM final; read-out: Jurkat HPDL1 PD1 IC50 (uM) (Method 1).

Bridge positions count the residues as written; N and C are the ends. Square brackets hold non-standard residues; d marks the D form. Peptide text beside a SMILES is read from it. * marks the point of attachment. ξ: configuration not given here. Phe(4-COOH) = N[C@@H](Cc1ccc(C(=O)O)cc1)C(=O)O; Bip = N[C@@H](Cc1ccc(-c2ccccc2)cc1)C(=O)O; Phe(3-Cl) = N[C@@H](Cc1cccc(Cl)c1)C(=O)O; Phe(3-F) = N[C@@H](Cc1cccc(F)c1)C(=O)O; Phe(3-Me) = Cc1cccc(C[C@H](N)C(=O)O)c1; Phe(4-F) = N[C@@H](Cc1ccc(F)cc1)C(=O)O; ξW = NC(Cc1c[nH]c2ccccc12)C(=O)O; 3Pal = N[C@@H](Cc1cccnc1)C(=O)O; 4Pal = N[C@@H](Cc1ccncc1)C(=O)O; Cha = N[C@@H](CC1CCCCC1)C(=O)O; Cit = NC(=O)NCCC[C@H](N)C(=O)O; ξIle = CC[C@H](C)C(N)C(=O)O; Carboxymethyl = O=C(O)C*; NMeA = CN[C@@H](C)C(=O)O; Orn = NCCC[C@H](N)C(=O)O; Dab = NCC[C@H](N)C(=O)O; Dap = NC[C@H](N)C(=O)O; ξC = NC(CS)C(=O)O; Acm = CC(=O)NC*

T1 sequence (Q15116 25-288): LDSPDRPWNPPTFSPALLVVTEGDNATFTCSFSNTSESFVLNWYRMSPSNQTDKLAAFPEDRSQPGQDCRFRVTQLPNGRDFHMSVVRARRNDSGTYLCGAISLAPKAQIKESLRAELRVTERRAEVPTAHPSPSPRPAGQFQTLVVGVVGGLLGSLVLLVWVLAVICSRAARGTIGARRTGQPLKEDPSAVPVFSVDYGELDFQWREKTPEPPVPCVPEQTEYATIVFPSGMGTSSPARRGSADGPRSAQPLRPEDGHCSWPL

The term IC50 denotes the concentration at which inhibition is half-maximal. For `CC(C)C[C@@H]1NC(=O)[C@H](CCN)NC(=O)[C@@H](CC(C)C)NC(=O)[C@H](C)N(C)C(=O)[C@H](C(C)C)NC(=O)[C@H](Cc2ccc(-c3ccccc3)cc2)NC(=O)[C@H](C(C)C)NC(=O)[C@H](Cc2cccc(Cl)c2)NC(=O)[C@H](CC(=O)O)NC(=O)[C@H](Cc2ccc(O)cc2)NC(=O)[C@H](CC(N)=O)NC(=O)CSC[C@@H](C(=O)N[C@@H](C)C(N)=O)NC(=O)[C@H]([C@@H](C)O)NC(=O)[C@H](C(C)C)NC1=O` [Compound 1265] ({CH2CO}-NYD[Phe(3-Cl)]V[Bip]V[NMeA][dL][Dab]LVTCA-NH2; thioether N-14), the IC50 turned out to be 0.01 µM.

`CC(=O)NCSC[C@H](NC(=O)C1CSCC(=O)N[C@@H](Cc2ccc(OCC(=O)O)cc2)C(=O)N[C@@H](CSCNC(C)=O)C(=O)N[C@@H](CC(=O)O)C(=O)N[C@@H](Cc2cccc(C)c2)C(=O)N[C@@H](CC(C)C)C(=O)N[C@@H](Cc2ccc(-c3ccccc3)cc2)C(=O)N[C@@H](C(C)C)C(=O)N(C)[C@@H](C)C(=O)N[C@H](CC(C)C)C(=O)N[C@@H](CC(N)=O)C(=O)N[C@@H](CC(C)C)C(=O)N[C@@H](C(C)C)C(=O)N[C@@H](CO)C(=O)N1)C(N)=O` (stereo partly drawn) [Compound 1889] ({CH2CO}-Y(Carboxymethyl)C(Acm)D[Phe(3-Me)]L[Bip]V[NMeA][dL]NLVS[ξC]C(Acm)-NH2; thioether N-14): the IC50 turned out to be 0.03 µM. Next, `CC(C)C[C@@H]1NC(=O)[C@H](Cc2c[nH]c3ccccc23)NC(=O)[C@H](CC(=O)O)NC(=O)[C@H](Cc2ccc(OCC(=O)O)cc2)NC(=O)[C@H](Cc2cnc[nH]2)NC(=O)CSC[C@@H](C(=O)N[C@@H](C)C(N)=O)NC(=O)[C@H](CO)NC(=O)[C@H](C(C)C)NC(=O)[C@H](CC(C)C)NC(=O)[C@H](CC(N)=O)NC(=O)[C@@H](C)NC(=O)[C@H](C)N(C)C(=O)[C@H](C(C)C)NC(=O)[C@H](Cc2ccc(-c3ccccc3)cc2)NC1=O` [Compound 1799] ({CH2CO}-HY(Carboxymethyl)DWL[Bip]V[NMeA][dA]NLVSCA-NH2; thioether N-14): 0.18 µM. Next, `CC(C)C[C@@H]1NC(=O)[C@H](Cc2c[nH]c3ccccc23)NC(=O)[C@H](CC(=O)O)NC(=O)[C@H](Cc2ccc(O)cc2)NC(=O)[C@H](Cc2cccnc2)NC(=O)CSC[C@@H](C(=O)NCC(N)=O)NC(=O)[C@H](CO)NC(=O)[C@H](C(C)C)NC(=O)[C@H](CC(C)C)NC(=O)[C@H](CC(N)=O)NC(=O)[C@@H](C)NC(=O)[C@H](C)N(C)C(=O)[C@H](C(C)C)NC(=O)[C@H](Cc2ccc(-c3ccccc3)cc2)NC1=O` [Compound 1743] ({CH2CO}-[3Pal]YDWL[Bip]V[NMeA][dA]NLVSCG-NH2; thioether N-14): 0.02 µM. As to `CC[C@H](C)C1NC(=O)[C@H](Cc2ccc(-c3ccccc3)cc2)NC(=O)[C@H](C(C)C)NC(=O)[C@H](Cc2c[nH]c3ccccc23)NC(=O)[C@H](CC(=O)O)NC(=O)[C@H](Cc2ccc(C(=O)O)cc2)NC(=O)[C@H](CC(N)=O)NC(=O)CSC[C@@H](C(=O)N[C@@H](C)C(N)=O)NC(=O)[C@H]([C@@H](C)O)NC(=O)[C@H](C(C)C)NC(=O)[C@H](CC(C)C)NC(=O)[C@H](CCN)NC(=O)[C@@H](CC(C)C)NC(=O)[C@H](C)N(C)C1=O` (stereo partly drawn) [Compound 1395] ({CH2CO}-N[Phe(4-COOH)]DWV[Bip][ξIle][NMeA][dL][Dab]LVTCA-NH2; thioether N-14), the IC50 was 0.02 µM. The result for `CC(C)C[C@@H]1NC(=O)[C@H](Cc2c[nH]c3ccccc23)NC(=O)[C@H](CC(=O)O)NC(=O)[C@H](Cc2ccncc2)NC(=O)[C@H](Cc2ccc(OCC(=O)O)cc2)NC(=O)CSC[C@@H](C(=O)N[C@H](CC(N)=O)C(N)=O)NC(=O)[C@H]([C@@H](C)O)NC(=O)[C@H](C(C)C)NC(=O)[C@H](CC2CCCCC2)NC(=O)[C@H](CCN)NC(=O)[C@@H](CC(C)C)NC(=O)[C@H](C)N(C)C(=O)[C@H](C(C)C)NC(=O)[C@H](Cc2ccc(-c3ccccc3)cc2)NC1=O` [Compound 1903] ({CH2CO}-Y(Carboxymethyl)[4Pal]DWL[Bip]V[NMeA][dL][Dab][Cha]VTC[dN]-NH2; thioether N-14) reads 0.04 µM; that for `Cc1cccc(C[C@@H]2NC(=O)[C@H](CC(=O)O)NC(=O)[C@H](Cc3ccc(C(=O)O)cc3)NC(=O)[C@H](Cc3ccc(F)cc3)NC(=O)CSC[C@@H](C(=O)N[C@@H](CCN)C(N)=O)NC(=O)[C@H](CCC(=O)O)NC(=O)[C@H](C(C)C)NC(=O)[C@H](CC3CCCCC3)NC(=O)[C@H](CCN)NC(=O)[C@@H](CC(C)C)NC(=O)[C@H](C)N(C)C(=O)[C@H](Cc3ccc(C(=O)O)cc3)NC(=O)[C@H](Cc3ccc(-c4ccccc4)cc3)NC(=O)[C@H](Cc3ccc(C(=O)O)cc3)NC2=O)c1` [Compound 2208] ({CH2CO}-[Phe(4-F)][Phe(4-COOH)]D[Phe(3-Me)][Phe(4-COOH)][Bip][Phe(4-COOH)][NMeA][dL][Dab][Cha]VEC[Dab]-NH2; thioether N-14), 0.01 µM; that for `CC(C)C[C@@H]1NC(=O)[C@H](CCCNC(=N)N)NC(=O)[C@@H](CC(C)C)NC(=O)[C@H](C)N(C)C(=O)[C@H](CCCNC(=N)N)NC(=O)[C@H](Cc2ccc(-c3ccccc3)cc2)NC(=O)[C@H](C(C)C)NC(=O)[C@H](Cc2c[nH]c3ccccc23)NC(=O)[C@H](CC(=O)O)NC(=O)[C@H](Cc2ccc(O)cc2)NC(=O)[C@H](CC(N)=O)NC(=O)CSC[C@@H](C(=O)N[C@@H](C)C(N)=O)NC(=O)[C@H]([C@@H](C)O)NC(=O)[C@H](C(C)C)NC1=O` [Compound 1045] ({CH2CO}-NYDWV[Bip]R[NMeA][dL]RLVTCA-NH2; thioether N-14), 0.2 µM. On to `Cc1cccc(C[C@@H]2NC(=O)[C@H](CC(=O)O)NC(=O)[C@H](Cc3ccc(OCC(=O)O)cc3)NC(=O)[C@H](CCCNC(=N)N)NC(=O)CSC[C@@H](C(N)=O)NC(=O)[C@H]([C@@H](C)O)NC(=O)[C@H](C(C)C)NC(=O)[C@H](CC3CCCCC3)NC(=O)[C@H](CCN)NC(=O)[C@@H](CC(C)C)NC(=O)[C@H](C)N(C)C(=O)[C@H](CCCN)NC(=O)[C@H](Cc3ccc(-c4ccccc4)cc3)NC(=O)[C@H](Cc3ccc(O)cc3)NC2=O)c1` [Compound 1868] ({CH2CO}-RY(Carboxymethyl)D[Phe(3-Me)]Y[Bip][Orn][NMeA][dL][Dab][Cha]VTC-NH2; thioether N-14), for which the 50% inhibitory concentration (IC50) stood at 0.17 µM. In the case of `CC(C)C[C@@H]1NC(=O)[C@H](Cc2c[nH]c3ccccc23)NC(=O)[C@H](CC(=O)O)NC(=O)[C@H](Cc2ccc(O)cc2)NC(=O)[C@H](Cc2ccccc2)NC(=O)CSC[C@@H](C(=O)N[C@@H](C)C(N)=O)NC(=O)[C@H](CO)NC(=O)[C@H](CCCCN)NC(=O)[C@H](CC(C)C)NC(=O)[C@H](CC(N)=O)NC(=O)[C@@H](C)NC(=O)[C@H](C)N(C)C(=O)[C@H](C(C)C)NC(=O)[C@H](Cc2ccc(-c3ccccc3)cc2)NC1=O` [Compound 1529] ({CH2CO}-FYDWL[Bip]V[NMeA][dA]NLKSCA-NH2; thioether N-14), the IC50 was found to be 0.05 µM. `CC(C)C[C@@H]1NC(=O)[C@H](CC(N)=O)NC(=O)[C@@H](CC(C)C)NC(=O)[C@H](C)N(C)C(=O)[C@H](CCCNC(N)=O)NC(=O)[C@H](Cc2ccc(-c3ccccc3)cc2)NC(=O)[C@H](C(C)C)NC(=O)[C@H](Cc2c[nH]c3ccccc23)NC(=O)[C@H](CC(=O)O)NC(=O)[C@H](Cc2ccc(O)cc2)NC(=O)[C@H](Cc2ccccc2)NC(=O)CSC[C@@H](C(=O)N[C@@H](C)C(=O)N[C@@H](CN)C(=O)O)NC(=O)[C@H](CO)NC(=O)[C@H](C(C)C)NC1=O` [Compound 2004] ({CH2CO}-FYDWV[Bip][Cit][NMeA][dL]NLVSCA[Dap]-OH; thioether N-14): the IC50 was found to be 0.02 µM. Regarding `Cc1cccc(C[C@@H]2NC(=O)[C@H](CC(=O)O)NC(=O)[C@H](Cc3ccc(OCC(=O)O)cc3)NC(=O)[C@H](Cc3ccncc3)NC(=O)CSC[C@@H](C(N)=O)NC(=O)[C@H]([C@@H](C)O)NC(=O)[C@H](C(C)C)NC(=O)[C@H](CC3CCCCC3)NC(=O)[C@H](CCN)NC(=O)[C@@H](CC(C)C)NC(=O)[C@H](C)N(C)C(=O)[C@H](Cc3ccc(OCC(=O)O)cc3)NC(=O)[C@H](Cc3ccc(-c4ccccc4)cc3)NC(=O)[C@H](Cc3ccc(OCC(=O)O)cc3)NC2=O)c1` [Compound 1660] ({CH2CO}-[4Pal]Y(Carboxymethyl)D[Phe(3-Me)]Y(Carboxymethyl)[Bip]Y(Carboxymethyl)[NMeA][dL][Dab][Cha]VTC-NH2; thioether N-14), the IC50 came out at 0.02 µM. As for `CC(C)C[C@@H]1NC(=O)[C@H](CCCNC(=N)N)NC(=O)C(Cc2c[nH]c3ccccc23)NC(=O)[C@H](C)N(C)C(=O)[C@H](CCCNC(=N)N)NC(=O)[C@H](Cc2ccc(-c3ccccc3)cc2)NC(=O)[C@H](C(C)C)NC(=O)[C@H](Cc2c[nH]c3ccccc23)NC(=O)[C@H](CC(=O)O)NC(=O)[C@H](Cc2ccc(O)cc2)NC(=O)[C@H](Cc2ccccc2)NC(=O)CSC[C@@H](C(=O)NCC(N)=O)NC(=O)[C@H](CO)NC(=O)[C@H](C(C)C)NC1=O` (stereo partly drawn) [Compound 1021] ({CH2CO}-FYDWV[Bip]R[NMeA][ξW]RLVSCG-NH2; thioether N-14), the IC50 was 0.14 µM. For `CC(C)C[C@@H]1NC(=O)[C@H](CCCNC(=N)N)NC(=O)[C@@H](CC(C)C)NC(=O)[C@H](C)N(C)C(=O)[C@H](CCCNC(=N)N)NC(=O)[C@H](Cc2ccc(-c3ccccc3)cc2)NC(=O)[C@H](C(C)C)NC(=O)[C@H](Cc2cccc(F)c2)NC(=O)[C@H](CC(=O)O)NC(=O)[C@H](Cc2ccc(O)cc2)NC(=O)[C@H](CC(N)=O)NC(=O)CSC[C@@H](C(=O)N[C@@H](C)C(N)=O)NC(=O)[C@H]([C@@H](C)O)NC(=O)[C@H](C(C)C)NC1=O` [Compound 1199] ({CH2CO}-NYD[Phe(3-F)]V[Bip]R[NMeA][dL]RLVTCA-NH2; thioether N-14), the 50% inhibitory concentration (IC50) is 0.45 µM. Turning to `CC(C)C[C@@H]1NC(=O)[C@H](CCCN)NC(=O)[C@@H](CC(C)C)NC(=O)[C@H](C)N(C)C(=O)[C@H](CCC(=O)O)NC(=O)[C@H](Cc2ccc(-c3ccccc3)cc2)NC(=O)[C@H](C(C)C)NC(=O)[C@H](Cc2c[nH]c3ccccc23)NC(=O)[C@H](CC(=O)O)NC(=O)[C@H](Cc2ccc(O)cc2)NC(=O)[C@H](Cc2ccccc2)NC(=O)CSC[C@@H](C(=O)N[C@@H](CCC(=O)O)C(N)=O)NC(=O)[C@H]([C@@H](C)O)NC(=O)[C@H](C(C)C)NC1=O` [Compound 1163] ({CH2CO}-FYDWV[Bip]E[NMeA][dL][Orn]LVTCE-NH2; thioether N-14), the IC50 was determined as 0.04 µM.
